# Laboratory results from publication PMC10671074, “Tumor Regression upon Intratumoral and Subcutaneous Dosing of the STING Agonist ALG-031048 in Mouse Efficacy Models” (International Journal of Molecular Sciences, 2023).
# Like-named read-outs stand apart in the source and are kept apart here. Marks after values point to notes of the source that are not given here.
# Experiments:
# MC38-hPD-L1 tumors = assay: MC38-hPD-L1 mouse colon carcinoma model; type: in vivo; settings: 5 mg/kg IP, BIW (4×)
# Description: Female C57/BL6 mice (Shanghai Lingchang Biotechnology Co., Ltd., Shanghai, China) were 5 to 8 weeks old with a body weight > 16 g at the time of inoculation. Animals were housed and fed as described above.
# After inoculation with tumor cells, the animals were checked daily for morbidity and mortality. During routine monitoring, the animals were checked for any effects of tumor growth or test articles on behavior such as mobility, food and water consumption, body weight gain/loss (body weights were measured twice per week after randomization), eye/hair matting, and any other abnormalities. Tumor volumes were measured and calculated as described above.
# Each group consisted of 10 animals. The control group was administered 5 mg/kg isotype control antibody in a volume of 10 μL/g of IP, BIW for 2.5 weeks, 5 doses total. The atezolizumab-treated group was administered 5 mg/kg in a volume of 10 μL/g of IP, BIW for 2.5 weeks, 5 doses total. […] Dosing started when average tumor volumes were 70 mm^3.
# Plasma stability, mouse = type: in vitro ADME; settings: 37 °C, read-out: Plasma t½, Mouse
# Method: (§1) The plasma stability assay was carried out on 96-well microtiter plates. The test compounds at 5 µM and the reference compound (propantheline) at 1 µM final concentration were incubated separately at 37 °C with mouse or human plasma for 0, 30, 60, and 240 min. At the end of each incubation time point, 300 μL of the quenching solution (50% acetonitrile, 50% methanol, and 0.05% formic acid) containing the internal standard was added to each well. The incubation plates were sealed, vortexed, and centrifuged at 4 °C for 15 min at 4000 rpm. The supernatant was transferred to fresh plates for LC/MS/MS analysis of the test compounds. The peak area ratios of each test compound over the internal standard were plotted against incubation time, and the t½ was calculated from the curve assuming first-order kinetics.
# [1] = test system: primary human immature dendritic cells; assay: Activation of primary human immature dendritic cells (CD83/CD86 flow cytometry); type: cell-based; settings: for Surface expression of CD86 and CD83 (in words): iDCs and, to a lesser degree, monocytes, 24 and 72 h; for EC50: iDCs, 72 h after stimulation
# Description: Frozen human PBMCs (100 × 10^6 cells) were obtained from Stem Cell Technologies (Kent, WA, USA). Monocytes were purified from PBMCs using a CD14^+ pan-monocyte-negative isolation kit and an LS column (Miltenyi Biotec, Bergisch Gladbach, Germany). Magnetically labeled non-target cells were depleted by retaining them within a MACS column in the magnetic field of a MACS Separator, while highly purified unlabeled CD1 D16^− cells were collected and used to generate dendritic cells. To obtain immature monocyte-derived dendritic cells (iMDDCs), enriched monocytes were cultured in Mo-DC differentiation medium (Miltenyi Biotec) supplemented with human IL-4 (250 IU/mL, Miltenyi Biotec) and human GM-CSF (800 IU/mL, Miltenyi Biotec) at 37 °C in a T-150 flask in a 5% CO2 humidified incubator for 5 days; fresh media was replenished every 2–3 days.
# […] An aliquot of iMDDCs was also cultured in maturation media for 24–48 h and used as a control containing RPMI 1640, 10% FBS, 2 mM L-glutamine, and human TNF-α (6000 IU/mL, Miltenyi Biotec). The supernatant from the plate was frozen to assess cytokine production, and cells were analyzed via flow cytometry.
# Cells were incubated with phosphate-buffered saline (PBS) containing 2% FBS and 2 mM of EDTA (FACS buffer) supplemented with 2 mg/mL of normal human IgG on ice for 15 min to block Fc receptors. The cell suspension was then incubated with a predetermined optimal concentration of the appropriate fluorescent dye-labeled monoclonal antibodies (mAbs) against human cell surface markers on ice for 30 min. The fluorescent dye-labeled mAbs against human cell surface molecules included anti-CD209, anti-CD14, anti-CD11c, anti-CD40, anti-HLA-DR, anti-CD86, and anti-CD83 (BD Biosciences, Franklin Lakes, NJ, USA or BioLegend, San Diego, CA, USA). In addition, a fixable live/dead stain (Thermo Fisher Scientific) at a dilution of 1:1000 was added to exclude dead cells. After several washes with FACS buffer, cells were resuspended in FACS buffer and analyzed on an Attune Nxt flow cytometer (Thermo Fisher Scientific) with FlowJo v10 software (BD Biosciences). An aliquot of the cells to be analyzed served as controls by using “fluorescent minus-one” to establish gates and determine the frequency of positively stained cells. Ultra-comp beads (Thermo Fisher Scientific) were used as single-stained controls to set up compensation on the flow cytometer.
# Plasma stability, human = type: in vitro ADME; settings: 37 °C, read-out: Plasma t½, Human
# Method: as §1
# primary human monocytes = assay: Activation of primary human monocytes (CD83/CD86 flow cytometry); type: cell-based; settings: Monocyte, 24 h after stimulation
# Description: Frozen human PBMCs (100 × 10^6 cells) were obtained from Stem Cell Technologies (Kent, WA, USA). Monocytes were purified from PBMCs using a CD14^+ pan-monocyte-negative isolation kit and an LS column (Miltenyi Biotec, Bergisch Gladbach, Germany). Magnetically labeled non-target cells were depleted by retaining them within a MACS column in the magnetic field of a MACS Separator, while highly purified unlabeled CD1 D16^− cells were collected and used to generate dendritic cells.
# The cell suspension was then incubated with a predetermined optimal concentration of the appropriate fluorescent dye-labeled monoclonal antibodies (mAbs) against human cell surface markers on ice for 30 min. The fluorescent dye-labeled mAbs against human cell surface molecules included anti-CD209, anti-CD14, anti-CD11c, anti-CD40, anti-HLA-DR, anti-CD86, and anti-CD83 (BD Biosciences, Franklin Lakes, NJ, USA or BioLegend, San Diego, CA, USA). In addition, a fixable live/dead stain (Thermo Fisher Scientific) at a dilution of 1:1000 was added to exclude dead cells. After several washes with FACS buffer, cells were resuspended in FACS buffer and analyzed on an Attune Nxt flow cytometer (Thermo Fisher Scientific) with FlowJo v10 software (BD Biosciences). An aliquot of the cells to be analyzed served as controls by using “fluorescent minus-one” to establish gates and determine the frequency of positively stained cells. Ultra-comp beads (Thermo Fisher Scientific) were used as single-stained controls to set up compensation on the flow cytometer.
# subcutaneous CT26 tumors = assay: CT26 mouse colon carcinoma model; settings: Table 2 study, 3 × q3d; for Median Time to Endpoint: vehicle 19.0
# [2] = Liver microsomal stability, mouse; type: in vitro ADME; settings: pH 7.4, 0.5 mg/mL mouse liver microsomes, 37 °C, read-out: Liver Microsome t½, Mouse
# Method: (§2) The liver microsomal stability assay was carried out in 96-well microtiter plates. The test compounds at 5 µM and the reference compound (verapamil) at 1 µM final concentration were incubated separately at 37 °C with 0.5 mg/mL liver microsomes, with or without 1 mM NADPH in 100 mM potassium phosphate buffer, pH 7.4 with 3.3 mM MgCl2. […] At each of the time points (0, 15, 30, and 60 min), the enzymatic reaction was terminated with the addition of 150 μL of quenching solution (100% acetonitrile, 0.1% formic acid, and the internal standard), and subsequently the mixtures were vortexed vigorously for 20 min and centrifuged at 4000 rpm at 10 °C. The supernatants (80 µL) were transferred to a clean 96-well plate and analyzed via LC/MS/MS. The peak area ratios of each test compound over the internal standard were plotted against incubation time, and the t½ was calculated from the curve assuming first-order kinetics.
# [3] = early clinical trial, patients; cited from earlier work
# [4] = Liver microsomal stability, human; type: in vitro ADME; settings: pH 7.4, 0.5 mg/mL human liver microsomes, 37 °C, read-out: Liver Microsome t½, Human
# Method: as §2
molecule,measurement,setting,value
Atezolizumab: anti-human PD-L1 antibody atezolizumab biosimilar provided by Crownbio [reference compound],Tumor Reduction vs. Group 1 (vehicle),MC38-hPD-L1 tumors; Day 11,53.7%
same,TV on Day 11 (Median),"MC38-hPD-L1 tumors; n = 10, vehicle 2268",1050 mm^3
"Nc1nc2c(ncn2[C@@H]2O[C@@H]3COP(=O)(O)O[C@H]4[C@@H](O)[C@H](n5cnc6c(N)ncnc65)O[C@@H]4COP(=O)(O)O[C@@H]2[C@@H]3O)c(=O)[nH]1 [2′3′ cGAMP, 2′3′ cyclic guanosine monophosphate–adenosine monophosphate]",half-life at 5 µM,"Plasma stability, mouse",7.2 min
same,Surface expression of CD86 and CD83 (in words),[1],upregulated the surface expression of CD86 and CD83
same,EC50,"[1]; read-out: EC50 CD83, Immature Dendritic Cells",3 µM
same,EC50,"[1]; read-out: EC50 CD86, Immature Dendritic Cells",7 µM
same,half-life at 5 µM,"Plasma stability, human",12.8 min
Nc1ncnc2c1ncn2[C@@H]1O[C@@H]2CO[P@@](=O)(S)O[C@@H]3[C@H](O)[C@@H](CO[P@@](=O)(S)O[C@H]2[C@H]1O)O[C@H]3n1cnc2c(N)ncnc21 [ADU-S100],EC50,"primary human monocytes; read-out: EC50 CD83, Monocytes",3.9 µM
same,EC50,"primary human monocytes; read-out: EC50 CD86, Monocytes",0.49 µM
same,Animals with tumor regression by end of study,"subcutaneous CT26 tumors; 25 μg IT, Day 40",1 of 10
same,Delayed Response (TV > 10 and <2000 mm^3),"subcutaneous CT26 tumors; 25 μg IT, n = 10",40% ^a
same,Treatment Failure (TV > 2000 mm^3),"subcutaneous CT26 tumors; 25 μg IT, n = 10",50% ^a
same,Complete Response (TV < 10 mm^3),"subcutaneous CT26 tumors; 25 μg IT, n = 10, BALB/c, end of study Day 40",10% ^a
same,Median Time to Endpoint,"subcutaneous CT26 tumors; 25 μg IT, n = 10",36.5 days
same,Delayed Response (TV > 10 and <2000 mm^3),"subcutaneous CT26 tumors; 100 μg IT, n = 10",10% ^b
same,Median Time to Endpoint,"subcutaneous CT26 tumors; 100 μg IT, n = 10",40.0 days
same,half-life at 5 µM,[2],> 480 min
same,half-life at 5 µM,"Plasma stability, mouse",> 60 min
same,EC50,"[1]; Homo sapiens, Dendritic cell, read-out: EC50 CD83, Immature Dendritic Cells",8 µM
same,EC50,"[1]; Homo sapiens, Dendritic cell, read-out: EC50 CD86, Immature Dendritic Cells",25 µM
same,Surface expression of CD86 and CD83 (in words),[1],upregulated the surface expression of CD86 and CD83
same,terminal t½,[3],10 to 23 min
same,half-life at 5 µM,[4],> 480 min
same,half-life at 5 µM,"Plasma stability, human",> 60 min
